As a reminder, the pIC50 is −log10 of the IC50, conventionally taken in molar units. By AC50 is commonly meant the midpoint of the concentration-response curve, whichever way the signal moves.

Experimental findings from patent US20240239811A1, “5-(5-(PIPERIDIN-4-YL)THIENO[3,2-C]PYRAZOL-2-YL]INDAZOLE DERIVATIVES AND RELATED COMPOUNDS AS MODULATORS FOR SPLICING NUCLEIC ACIDS AND FOR THE T” (REMIX THERAPEUTICS INC., priority 2020, published 2024) are described below.

Holding throughout (format): cell-based
The subject of one assay is SMN2 CJ mRNA. The assay is described as follows: Gene panel canonical junction qPCR assay, SMN2. The conditions noted are these: Table 6, decrease in CJ mRNA, read-out: SMN2 IC50 (decrease in CJ mRNA levels). In short, it runs like this: (§1)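 A673 or K562 cells treated 24 h at 37° C with 11-point 3-fold dilutions, top 10 uM, DMSO ≤0.25%. CJ mRNA quantified by RT-qPCR with exon-junction-spanning probeset, ΔΔCt vs housekeeping gene (GAPDH, GUSB or PPIA) and DMSO control. IC50 from 4-parameter fit of percentage CJ decrease.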
A general note: Quantitative PCR measures a nucleic acid by following its amplification.

The next assay deals with Target C CJ mRNA. The assay is described as follows: Gene panel canonical junction qPCR assay, Target C. The conditions noted are these: Table 6, decrease in CJ mRNA, read-out: Target C IC50 (decrease in CJ mRNA levels). In short, it runs like this:
as §1

For a further assay, the system named is HTT CJ mRNA. The assay can be described thus: Gene panel canonical junction qPCR assay, HTT. The conditions noted are these: Table 6, decrease in CJ mRNA, read-out: HTT IC50 (decrease in CJ mRNA levels). In short, it runs like this: as §1
The next assay relates to HTT mRNA. The assay can be described thus: Splicing assay (RT-qPCR) monitoring HTT splice variants, canonical (CJ) and alternative (AJ) junction. To be noted: 50% response, A673 or K562 cell line, 24 hours; for pIC50: decrease in CJ mRNA; for AC50: increase in AJ mRNA. In short, it runs like this: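 A673 or K562 cells were treated 24 h with an 11-point 3-fold dilution series (top 10 uM, ≤0.25% DMSO) at 37 °C. HTT canonical- and alternative-junction mRNAs were quantified in lysates by one-step RT-qPCR. Values were normalized to PPIA (A673) or GAPDH/GUSB (K562).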

Structures are written as SMILES. pIC50: −log10 of the molar value. Structures can show the parent of a compound that is named as a salt. Where only a bound is given, the exact number is not on record here.

As to `Cn1cc2cc(-c3cc4cn(C5CCNCC5)nc4s3)c(O)cc2n1` [Compound 209, 2-methyl-5-[2-(piperidin-4-yl)thieno[2,3-c]pyrazol-5-yl]indazol-6-ol], the pIC50 was 6.00 to 7.00 in the assay on SMN2 CJ mRNA, 5.00 to 6.00 with Target C CJ mRNA, 6.00 to 7.00 in the assay with HTT CJ mRNA and 6.00 to 7.00 in the assay with HTT mRNA. The compound further gave an AC50 in the assay on HTT mRNA of 1000 to 10000 nM.

As for `Cn1cc2cc(-c3cc4cn(C5CCNCC5)nc4s3)cc(F)c2n1` [Compound 122, 7-fluoro-2-methyl-5-[2-(piperidin-4-yl)thieno[2,3-c]pyrazol-5-yl]indazole], the negative-log IC50 (pIC50) in the assay on SMN2 CJ mRNA, with Target C CJ mRNA, with HTT CJ mRNA and with HTT mRNA was over 7.00 each time. This compound yielded an AC50 in the assay with HTT mRNA of 100 to 1000 nM.

`Cn1cc2cc(-c3cc4cn(C5CCNCC5)nc4s3)c(O)c(F)c2n1` [Compound 215]: the pIC50 in the assay with SMN2 CJ mRNA is over 7.00; with Target C CJ mRNA, 6.00 to 7.00; with HTT CJ mRNA it was 6.00 to 7.00; with HTT mRNA, 6.00 to 7.00. The same compound returned an AC50 in the assay on HTT mRNA of 100 to 1000 nM.

Regarding `c1n[nH]cc1-n1cc2sc(C3CCNCC3)cc2n1` [Compound 176], the negative logarithm of the IC50 (pIC50) with SMN2 CJ mRNA, in the assay on Target C CJ mRNA, in the assay on HTT CJ mRNA and with HTT mRNA was under 5.00 each time. This compound had an AC50 in the assay on HTT mRNA of over 10000 nM.

On to `Cn1cc2cc(-c3nc4sc(N5CCC56CCNC6)cc4s3)cc(F)c2n1` (stereo not shown) [Compound 200, 5-(5-{1,6-diazaspiro[3.4]octan-1-yl}thieno[2,3-d][1,3]thiazol-2-yl)-7-fluoro-2-methy-lindazole], for which the pIC50 with SMN2 CJ mRNA is 5.00 to 6.00; in the assay with Target C CJ mRNA, under 5.00; with HTT CJ mRNA it was under 5.00; in the assay on HTT mRNA, under 5.00. The same compound came in with an AC50 with HTT mRNA of over 10000 nM.

Take `Cc1cn2cc(-c3cc4cn(C5CCNCC5)nc4s3)ncc2n1` [Compound 223]: the pIC50 in the assay on SMN2 CJ mRNA is 6.00 to 7.00; in the assay with Target C CJ mRNA it was 5.00 to 6.00; with HTT CJ mRNA, 5.00 to 6.00; in the assay with HTT mRNA, 5.00 to 6.00. In addition, in the assay with HTT mRNA, the AC50 lay within 1000 to 10000 nM.

Take `Cc1nc2c(F)cc(-c3nc4sc(C5CCNCC5)cc4s3)cc2s1` [Compound 126, 4-fluoro-2-methyl-6-[5-(piperidin-4-yl)thieno[2,3-d][1,3]thiazol-2-yl]-1,3-benzothiazole hydrochloride]: the pIC50 with SMN2 CJ mRNA is 6.00 to 7.00; with Target C CJ mRNA it was 5.00 to 6.00; in the assay with HTT CJ mRNA it was 6.00 to 7.00; in the assay with HTT mRNA, 6.00 to 7.00. The same compound showed an AC50 in the assay with HTT mRNA of 100 to 1000 nM.

`Cc1cn2nc(-n3cc4sc(C5CCNCC5)cc4n3)cc(C)c2n1` [Compound 101, 4-(2-[2,8-dimethylimidazo[1,2-b]pyridazin-6-yl]thieno[3,2-c]pyrazol-5-yl)piperidine]: the pIC50 with SMN2 CJ mRNA, in the assay with Target C CJ mRNA, in the assay with HTT CJ mRNA and in the assay with HTT mRNA was over 7.00 each time. For the same compound, the concentration at half-maximal activity (AC50) in the assay on HTT mRNA fell in the range of 100 to 1000 nM.

Consider `Cc1cn2nc(-n3cc4sc(C5CCNCC5)cc4n3)nc2c(C)n1` [Compound 170], for which the pIC50 with SMN2 CJ mRNA, with Target C CJ mRNA, with HTT CJ mRNA and in the assay with HTT mRNA was 5.00 to 6.00 in each case. This compound also showed an AC50 in the assay with HTT mRNA of 1000 to 10000 nM.

Consider `Cc1cn2cc(-n3cc4sc(C5CCNCC5)cc4n3)cc(Cl)c2n1` [Compound 172], for which the pIC50 in the assay with SMN2 CJ mRNA was 6.00 to 7.00; in the assay with Target C CJ mRNA it was 5.00 to 6.00; with HTT CJ mRNA, 6.00 to 7.00; in the assay on HTT mRNA it was 6.00 to 7.00. This compound returned an AC50 with HTT mRNA of 100 to 1000 nM.

Turning to `Cc1cn2nc(-n3cc4sc(C5CCNCC5)cc4n3)cc2c(C)n1` [Compound 171], the pIC50 is 6.00 to 7.00 in the assay on SMN2 CJ mRNA, 5.00 to 6.00 in the assay on Target C CJ mRNA, 6.00 to 7.00 in the assay on HTT CJ mRNA and 6.00 to 7.00 in the assay with HTT mRNA. The AC50 with HTT mRNA lay within 100 to 1000 nM.

With `Cn1cc2cc(-c3cc4cn(C5CCNCC5)nc4s3)c(F)cc2n1` [Compound 210], the pIC50 was over 7.00 in the assay on SMN2 CJ mRNA, 6.00 to 7.00 in the assay with Target C CJ mRNA, over 7.00 with HTT CJ mRNA and over 7.00 in the assay with HTT mRNA. Further, in the assay with HTT mRNA, the AC50 is under 100 nM.

Turning to `Cc1cc(-c2cc3cn(C4CCNCC4)nc3s2)cc2cn(C)nc12` [Compound 225], the pIC50 in the assay on SMN2 CJ mRNA was over 7.00; with Target C CJ mRNA, 6.00 to 7.00; in the assay with HTT CJ mRNA, over 7.00; in the assay on HTT mRNA it was over 7.00. In the assay on HTT mRNA, the AC50 was under 100 nM.

Turning to `CN1CCC2(CC1)CCN2c1cc2sc(-c3cc(F)c4nn(C)cc4c3)nc2s1` [Compound 204, 1-[2-(7-fluoro-2-methylindazol-5-yl)thieno[2,3-d][1,3]thiazol-5-yl]-7-methyl-1,7-diazaspiro [3.5]nonane], the negative logarithm of the IC50 (pIC50) in the assay with SMN2 CJ mRNA, in the assay with Target C CJ mRNA, in the assay on HTT CJ mRNA and in the assay on HTT mRNA was 5.00 to 6.00 each time. In addition, in the assay on HTT mRNA, the half-maximal activity concentration (AC50) lay within 1000 to 10000 nM.

In the case of `Cn1cc2cc(-c3nc4sc(N5CCC6(CCN6)C5)cc4s3)cc(F)c2n1` (stereo not shown) [Compound 233, 5-(5-{1,6-diazaspiro[3.4]octan-6-yl}thieno[2,3-d][1,3]thiazol-2-yl)-7-fluoro-2-methylindazole], the pIC50 in the assay with SMN2 CJ mRNA is over 7.00; in the assay with Target C CJ mRNA, 5.00 to 6.00; in the assay on HTT CJ mRNA, 5.00 to 6.00; with HTT mRNA, 5.00 to 6.00. In the assay with HTT mRNA, this compound yielded an AC50 of 1000 to 10000 nM.

Turning to `Cc1cn2nc(-c3nc4sc(C5=CCOCC5)cc4s3)cc(C)c2n1` [Compound 195, 6-[5-(3,6-dihydro-2H-pyran-4-yl)thieno[2,3-d][1,3]thiazol-2-yl]-2,8-dimethylimidazo[1,2-b]pyridazine], the pIC50 in the assay on SMN2 CJ mRNA, in the assay with Target C CJ mRNA, with HTT CJ mRNA and in the assay with HTT mRNA was 6.00 to 7.00 throughout. This compound yielded an AC50 with HTT mRNA of 100 to 1000 nM.

Turning to `Cc1cn2cc(-c3nc4sc(C5CCNCC5)cc4s3)cc(C)c2n1` [Compound 140, 4-(2-[2,8-dimethylimidazo[1,2-a]pyridin-6-yl]thieno[2,3-d][1,3]thiazol-5-yl)piperidine hydrochloride], the pIC50 is over 7.00 with SMN2 CJ mRNA, 6.00 to 7.00 in the assay with Target C CJ mRNA, over 7.00 in the assay with HTT CJ mRNA and over 7.00 in the assay with HTT mRNA. The compound also returned an AC50 in the assay with HTT mRNA of under 100 nM.

Take `Cc1cn2cc(-c3nc4sc(C5CCNCC5)cc4s3)cc(Cl)c2n1` [Compound 139]: the negative logarithm of the IC50 (pIC50) in the assay with SMN2 CJ mRNA, in the assay with Target C CJ mRNA, with HTT CJ mRNA and with HTT mRNA was over 7.00 each time. The compound also had an AC50 in the assay on HTT mRNA of under 100 nM.

With `CN1CCC(N(C)c2cc3sc(-c4cc(F)c5nn(C)cc5c4)nc3s2)CC1` [Compound 145, N-[2-(7-fluoro-2-methylindazol-5-yl)thieno[2,3-d][1,3]thiazol-5-yl]-N,1-dimethylpiperidin-4-amine], the pIC50 was 6.00 to 7.00 in the assay on SMN2 CJ mRNA, under 5.00 with Target C CJ mRNA, under 5.00 in the assay with HTT CJ mRNA and under 5.00 with HTT mRNA. For the same compound, the AC50 with HTT mRNA is over 10000 nM.

On to `CCNC1CCN(c2cc3sc(-c4cc(F)c5nn(C)cc5c4)nc3s2)CC1` [Compound 137, N-ethyl-1-[2-(7-fluoro-2-methylindazol-5-yl)thieno[2,3-d][1,3]thiazol-5-yl]piperidin-4-amine], for which the pIC50 in the assay on SMN2 CJ mRNA is over 7.00; with Target C CJ mRNA, 6.00 to 7.00; in the assay with HTT CJ mRNA it was 6.00 to 7.00; in the assay with HTT mRNA it was 6.00 to 7.00. In the assay on HTT mRNA, this compound returned an AC50 of 100 to 1000 nM.
